Entries after “also recorded” stand apart in the source; their conditions may differ.
Tests used:
[1] = Stability at pH 1 / stomach acid; format: physicochemical
[2] = Conversion of the dithiocarbamate disulfide to the monomer by L-cysteine (UV spectrum); format: physicochemical; conditions: L-cysteine 5 mg/mL in 60 mM HEPES pH 7.4; disulfide 20 μg/mL; UV 190-340 nm
Experimental: FIG. 2 is an illustration of the UV spectrum of N-methyl-D-glucamine dithiocarbamate disulfide (MGDD) (20 μg/mL)in the presence of L-cysteine (5 mg/mL). The spectrum was recorded with a scan range of 190 nm to 340 nm.
FIG. 10 is an illustration of the UV spectrum measured on Hewlett Packard 8451A Diode Array Spectrophotometer. Scanning wavelength 190 nm-340 nm. One mL freshly prepared solution of L-cysteine (5 mg/mL) in 60 mM HEPES buffer, pH=7.4 is transferred into the UV cell (cell length 1 cm) plus 1 μl acetone and the absorbance of this solution is measured as a background. Added 1 μl stock solution of Pyrrolidine dithiocarbamate disulfide (PDD) in acetone to the cuvette—final concentration of PDD is 20 μg/mL. After mixing the UV spectrum is measured immediately.
A freshly prepared solution of L-cysteine (5 mg/mL) in 60 mM HEPES buffer, pH 7.4 was transferred into a UV cell (cell length 1cm) plus 1 μl acetone and the absorbance of this solution was recorded as background. Immediately after the addition of Pyrrolidine dithiocarbamate disulfide (PDD) (final concentration of 20 μg/mL), the spectrum was recorded with a scan range of 190 nm to 340 nm.

[3] = format: physicochemical; conditions: KCN in water; UV spectrum recorded immediately after mixing
diabetic-prone BB rats = test system: diabetic-prone BB rats
Experimental: FIG. 4 is a graph illustrating the effects of oral administration of L-proline dithiocarbamate on the survival of diabetic-prone BB rats. The percentage of survival was plotted against the age of the animals over 125 days. The treated group (n=30) (▪) received 5 mg/ml monomeric L-proline dithiocarbamate in drinking water, while the untreated group (n=31) (□) received only water.
We tested the effectiveness of the oral administration of (L-PD) for the treatment of diabetic-prone BB rats, an animal model that is widely used for type I insulin-dependent diabetes. Type I diabetes is an autoimmune disease. the pathogenesis of this disease remains unclear although there is ample evidence for increased NO production at early stages of the disease (see, for example, G. M. Piper, Hypertension, 31: 1047-1060, 1998).
Male, diabetic-prone BB rats (n=61, 250-280 g) were used for the study. The rats were distributed between untreated and L-PD treated groups. The treated group received 5 mg/ml L-PD in drinking water. The treatment started when the animals were 2 months old and continued until they were 4 months old. […] Percent survival was calculated by Product-Limit Survival Analysis Generalized Savage (Mantel-Cox) with p<0.01.

Lewis rats = conditions: 10 mg/ml in drinking water; scored 0-6 from day 6; n=9
Experimental: The test rats (▪) were given L-PD in drinking water (10 mg/ml). Control rats ([formula]) received only distilled water for drinking. Beginning on day 6, the left foot of the animals was scored for the development of arthritic disease using the following system: 0=no redness or inflammation, 1=one area of redness or inflammation on the foot less than 2 mm in diameter, 3=partial redness/inflammation of the footpad, 4=all of footpad red or inflamed, 5=criteria of 4 plus at least one toe red or inflamed, and 6=criteria of 4 plus toes inflamed and deformed (toes curling under footpad).
After the subcutaneous injection in the right footpad of a suspension in mineral oil of heat killed M. tuberculosis on day 1, the Lewis rats were separated into two groups (n=9); one given L-PD (10 mg/ml) in the drinking water and the other given only distilled water. Beginning on day 6, the left foot of the animals was scored for the development of arthritic disease using the following system: 0=no redness or inflammation, 1=one area of redness or inflammation on the foot less than 2 mm in diameter, 3=partial redness/inflammation of the footpad, 4=all of footpad red or inflamed, 5=criteria of 4 plus at least one toe red or inflame, d, and 6=criteria of 4 plus toes inflamed and deformed (toes curling under footpad).

[4] = cited from earlier work

S=C(SSC(=S)N1CCCC1)N1CCCC1 [PDD, Pyrrolidine dithiocarbamate disulfide]
time stable at pH 1 [1]: ≤ 24 hours
conversion to the monomeric dithiocarbamate on addition of L-cysteine [2]: readily be converted into its starting material, pyrrolidine dithiocarbamate
reaction with potassium cyanide [3]: fast reaction

CN(C[C@H](O)[C@@H](O)[C@H](O)[C@H](O)CO)C(=S)SSC(=S)N(C)C[C@H](O)[C@@H](O)[C@H](O)[C@H](O)CO [MGDD, N-methyl-D-glucamine dithiocarbamate disulfide]
conversion to the monomeric dithiocarbamate on addition of L-cysteine [2]: readily be converted into its starting material, MGD; also recorded: identical to that of N-methyl-D-glucamine dithiocarbamate
reaction with potassium cyanide [3]: fast reaction

NC(=S)S.O=C(O)[C@@H]1CCCN1 [L-PD, L-proline dithiocarbamate]
animals surviving at the end of the experiments (diabetic-prone BB rats; 5 mg/ml in drinking water for 2 months (age 2 to 4 months), untreated 10 percent, p<0.01): more than 30%
improvement in survival compared to the untreated group (diabetic-prone BB rats; 5 mg/ml in drinking water, n=30, over 125 days): statistically significant
effect on water consumption (diabetic-prone BB rats; chronic treatment, 5 mg/ml in drinking water): no apparent effect
severity score of the inflammation in the left footpad (Lewis rats): significantly reduced

S=C(S)N1CCCC1 [Pyrrolidine dithiocarbamate]
stability in the presence of stomach acid [4]: breaks down to ineffective species
